From patent US8148373B2, “Compounds” (AstraZeneca AB, priority 2008, dated 2012) come the findings set out here.

Counter-ions that a name gives are not always drawn.

The target of assay [1] is T1, Adrenergic β2 (H292 cells) (Homo sapiens, UniProt P07550).
T1 construct: endogenous in cells; host or cells: H292 cells
As to the kind of experiment: Assay for Adrenergic β2 Mediated cAMP Production (concentration response, AlphaScreen cAMP detection). The class given is cell-based. The settings on record: for EC50: cAMP production, 60 minutes at room temperature, 300 μM rolipram, read-out: β2 pEC50 (converted); for β2 Intrinsic activity: fraction relative to the maximum activity determined for formoterol. How it is done:
Assay for Adrenergic β2 Mediated Camp Production
H292 cells are grown in 225 cm2 flasks incubator at 37° C., 5% CO2 in RPMI medium containing 10% (v/v) FBS (foetal bovine serum) and 2 mM L-glutamine.
Adherent H292 cells are removed from tissue culture flasks by treatment with Accutase™ cell detachment solution for 15 minutes. Flasks are incubated for 15 minutes in a humidified incubator at 37° C., 5% CO2. Detached cells are re-suspended in RPMI media (containing 10% (v/v) FBS and 2 mM L-glutamine) at 0.1×10^6 cells per mL. 10000 cells in 100 μL are added to each well of a tissue-culture-treated 96-well plate and the cells incubated overnight in a humidified incubator at 37° C., 5% CO2. The culture media is removed and cells are washed twice with 100 μL assay buffer and replaced with 50 μL assay buffer (HBSS solution containing 10 mM HEPES pH7.4 and 5 mM glucose). Cells are rested at room temperature for 20 minutes after which time 25 μL of rolipram (1.2 mM made up in assay buffer containing 2.4% (v/v) dimethylsulphoxide) is added. Cells are incubated with rolipram for 10 minutes after which time test compounds are added and the cells are incubated for 60 minutes at room temperature. The final rolipram concentration in the assay is 300 μM and final vehicle concentration is 1% (v/v) dimethylsulphoxide. The reaction is stopped by removing supernatants, washing once with 100 μL assay buffer and replacing with 50 μL lysis buffer. The cell monolayer is frozen at −80° C. for 30 minutes (or overnight).
AlphaScreen™ cAMP Detection
The concentration of cAMP (cyclic adenosine monophosphate) in the cell lysate is determined using AlphaScreen™ methodology. The frozen cell plate is thawed for 20 minutes on a plate shaker then 10 μL of the cell lysate is transferred to a 96-well white plate. 40 μL of mixed AlphaScreen™ detection beads pre-incubated with biotinylated cAMP, is added to each well and the plate incubated at room temperature for 3 hours in the dark. The AlphaScreen™ signal is measured using an EnVision spectrophotometer (Perkin-Elmer Inc.) with the recommended manufacturer's settings. cAMP concentrations are determined by reference to a calibration curve determined in the same experiment using standard cAMP concentrations. Concentration response curves for agonists are constructed and data is fitted to a four parameter logistic equation to determine both the pEC50 and Intrinsic Activity. Intrinsic Activity is expressed as a fraction relative to the maximum activity determined for formoterol in each experiment.

Assay [2] deals with T2, human muscarinic acetylcholine M3 receptor (M3-ACh) (Homo sapiens, UniProt P20309).
T2 construct: expressed in transfected cells; host or cells: CHO-K1 (Chinese Hamster Ovary) cell membranes
T2 sequence (P20309 whole entry): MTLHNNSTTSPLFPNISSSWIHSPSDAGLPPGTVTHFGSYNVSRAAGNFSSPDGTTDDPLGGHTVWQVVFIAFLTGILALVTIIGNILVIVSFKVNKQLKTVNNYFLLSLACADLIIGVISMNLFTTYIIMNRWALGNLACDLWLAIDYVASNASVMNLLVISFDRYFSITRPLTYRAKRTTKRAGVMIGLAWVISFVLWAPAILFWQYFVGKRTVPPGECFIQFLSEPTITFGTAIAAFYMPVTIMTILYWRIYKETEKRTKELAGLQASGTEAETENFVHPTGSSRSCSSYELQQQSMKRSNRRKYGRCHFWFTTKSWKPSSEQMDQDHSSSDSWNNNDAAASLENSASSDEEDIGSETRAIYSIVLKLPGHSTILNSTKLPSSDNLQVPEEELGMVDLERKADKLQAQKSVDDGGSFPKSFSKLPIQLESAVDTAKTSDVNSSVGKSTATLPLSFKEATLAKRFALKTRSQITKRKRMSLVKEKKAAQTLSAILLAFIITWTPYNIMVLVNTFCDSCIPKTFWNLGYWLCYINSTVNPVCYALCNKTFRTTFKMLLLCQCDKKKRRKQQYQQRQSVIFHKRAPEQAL
As to the kind of experiment: Muscarinic 3 Receptor Binding Assay ([3H]NMS competition, SPA). The settings on record: [3H]NMS 0.1 nM, CHO-K1 cell membranes, 16 hours at room temperature; read-out: M3 pIC50 (converted). As for the experimental part:
Muscarinic 3 Receptor Binding Assay
The affinity (pIC50) of compounds binding to the M3 receptor is determined by competition binding of [^3H]N-methyl scopolamine (NMS) to CHO-K1 (Chinese Hamster Ovary) cell membranes expressing the human muscarinic acetylcholine M3 receptor (M3-ACh) in a scintillation proximity assay (SPA) format.
SPA beads are precoated with membranes and then incubated at 2 mg of beads per well with serial dilutions of compounds of the invention, [^3H]NMS at 0.1 nM, quarter Kd (experimentally determined dissociation constant) and assay buffer (20 mM HEPES pH 7.4 containing 5 mM MgCl2). The assay is conducted in a final volume of 200 μL, in the presence of 1% (v/v) dimethyl sulphoxide (DMSO). Total binding of [^3H]NMS is determined in the absence of competing compound and non-specific binding of [^3H]NMS is determined in the presence of 1 μM atropine. The plates are incubated for 16 hours at room temperature and then read on Wallac Microbeta™ using a normalised ^3H protocol. The pIC50, defined as the negative logarithm of the molar concentration of compound required for 50% reduction in specific [^3H]-NMS binding, is determined.

T1 sequence (P07550 whole entry): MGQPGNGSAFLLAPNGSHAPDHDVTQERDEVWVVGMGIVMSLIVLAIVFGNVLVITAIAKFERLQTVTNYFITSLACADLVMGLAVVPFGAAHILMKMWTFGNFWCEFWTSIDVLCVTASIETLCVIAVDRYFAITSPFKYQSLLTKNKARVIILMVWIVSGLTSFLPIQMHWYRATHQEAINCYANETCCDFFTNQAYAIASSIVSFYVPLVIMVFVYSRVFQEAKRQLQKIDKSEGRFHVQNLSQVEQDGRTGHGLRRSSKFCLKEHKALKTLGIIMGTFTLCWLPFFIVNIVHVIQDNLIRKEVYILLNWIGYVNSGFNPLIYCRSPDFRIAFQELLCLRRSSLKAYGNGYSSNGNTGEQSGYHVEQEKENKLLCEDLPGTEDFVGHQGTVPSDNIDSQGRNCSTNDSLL

On to `Cc1nc(C(=O)N2CCOC3(CCN(Cc4cccc(CCNCC(O)c5ccc(O)c6c5OCC(=O)N6)c4)CC3)C2)cs1` (single isomer, unassigned; isomer 1) [Example 11, 5-Hydroxy-8-(1-hydroxy-2-(3-((4-(2-methylthiazole-4-carbonyl)-1-oxa-4,9-diazaspiro[5.5]undecan-9-yl)methyl)phenethylamino)ethyl)-2H-benzo[b][1,4]oxazin-3(4H)-one ditrifluoroacetate, Isomer 1], for which, in assay [1], the EC50 is 1.58 nM and the “β2 Intrinsic activity” value was determined as 0.8. In addition, the IC50 in assay [2] is 0.1 nM.

With `Cc1nc(C(=O)N2CCOC3(CCN(Cc4cccc(CCNCC(O)c5ccc(O)c6c5OCC(=O)N6)c4)CC3)C2)cs1` (single isomer, unassigned; isomer 2) [Example 13, 5-Hydroxy-8-(1-hydroxy-2-(3-((4-(2-methylthiazole-4-carbonyl)-1-oxa-4,9-diazaspiro[5.5]undecan-9-yl)methyl)phenethylamino)ethyl)-2H-benzo[b][1,4]oxazin-3(4H)-one ditrifluoroacetate, Isomer 2], in assay [1], the EC50 was 39.8 nM and the “β2 Intrinsic activity” value came to 0.8. Moreover, the IC50 in assay [2] was 0.0794 nM.

With `Cc1nc(C(=O)N2CCOC3(CCN(CCOc4ccc(CNC[C@H](O)c5ccc(O)c6[nH]c(=O)sc56)cc4)CC3)C2)cs1` [Example 1, (R)-4-Hydroxy-7-(1-hydroxy-2-(4-(2-(4-(2-methylthiazole-4-carbonyl)-1-oxa-4,9-diazaspiro[5.5]undecan-9-yl)ethoxy)benzylamino)ethyl)benzo[d]thiazol-2(3H)-one ditrifluoroacetate], in assay [1], the EC50 is 63.1 nM and the “β2 Intrinsic activity” value is reported as 0.8. Also, the IC50 in assay [2] is 3.16 nM.

On to `Cc1nc(C(=O)N2CCOC3(CCN(CCCCCCCCCNC[C@H](O)c4ccc(O)c5[nH]c(=O)sc45)CC3)C2)cs1` [Example 2, (R)-4-Hydroxy-7-(1-hydroxy-2-(9-(4-(2-methylthiazole-4-carbonyl)-1-oxa-4,9-diazaspiro[5.5]undecan-9-yl)nonylamino)ethyl)benzo[d]thiazol-2(3H)-one ditrifluoroacetate], for which, in assay [1], the EC50 is 12.6 nM and the “β2 Intrinsic activity” value came out at 0.8. Moreover, the IC50 in assay [2] was 0.316 nM.

As to `Cc1nc(C(=O)N2CCOC3(CCN(CCOc4ccc(CCNC[C@H](O)c5ccc(O)c6[nH]c(=O)sc56)cc4)CC3)C2)cs1` [Example 3, (R)-4-Hydroxy-7-(1-hydroxy-2-(4-(2-(4-(2-methylthiazole-4-carbonyl)-1-oxa-4,9-diazaspiro[5.5]undecan-9-yl)ethoxy)phenethylamino)ethyl)benzo[d]thiazol-2(3H)-one dihydrochloride], in assay [1], the EC50 is 7.94 nM and the “β2 Intrinsic activity” value turned out to be 1.0. Besides, in assay [2], the IC50 was 1 nM.

With `Cc1nc(C(=O)N2CCOC3(CCN(CCc4ccc(CCNC[C@H](O)c5ccc(O)c6[nH]c(=O)sc56)s4)CC3)C2)cs1` [Example 4, (R)-4-Hydroxy-7-(1-hydroxy-2-(2-(5-(2-(4-(2-methylthiazole-4-carbonyl)-1-oxa-4,9-diazaspiro[5.5]undecan-9-yl)ethyl)thiophen-2-yl)ethylamino)ethyl)benzo[d]thiazol-2(3H)-one ditrifluoroacetate], in assay [1], the EC50 is 15.8 nM and the “β2 Intrinsic activity” value is given as 0.9. For the same compound, the IC50 in assay [2] is 1.26 nM.

As for `Cc1nc(C(=O)N2CCOC3(CCN(CCc4ccc(CCNC[C@H](O)c5ccc(O)c6[nH]c(=O)sc56)cc4)CC3)C2)cs1` [Example 5, (R)-4-Hydroxy-7-(1-hydroxy-2-(4-(2-(4-(2-methylthiazole-4-carbonyl)-1-oxa-4,9-diazaspiro[5.5]undecan-9-yl)ethyl)phenethylamino)ethyl)benzo[d]thiazol-2(3H)-one ditrifluoroacetate], in assay [1], the EC50 was 79.4 nM and the “β2 Intrinsic activity” value was 0.9. In assay [2], the IC50 is 2.51 nM.

`Cc1nc(C(=O)N2CCOC3(CCN(Cc4cccc(CCNC[C@H](O)c5ccc(O)c6[nH]c(=O)sc56)c4)CC3)C2)cs1` [Example 6, (R)-4-Hydroxy-7-(1-hydroxy-2-(3-((4-(2-methylthiazole-4-carbonyl)-1-oxa-4,9-diazaspiro[5.5]undecan-9-yl)methyl)phenethylamino)ethyl)benzo[d]thiazol-2(3H)-one ditrifluoroacetate]: in assay [1], the EC50 was 3.98 nM and the “β2 Intrinsic activity” value worked out at 0.9. Further, in assay [2], the IC50 was 0.316 nM.

In the case of `Cc1nc(C(=O)N2CCOC3(CCN(Cc4cccc(CCNC[C@H](O)c5ccc(O)c6[nH]c(=O)ccc56)c4)CC3)C2)cs1` [Example 7, (R)-8-Hydroxy-5-(1-hydroxy-2-(3-((4-(2-methylthiazole-4-carbonyl)-1-oxa-4,9-diazaspiro[5.5]undecan-9-yl)methyl)phenethylamino)ethyl)quinolin-2(1H)-one ditrifluoroacetate], in assay [1], the EC50 is 6.31 nM and the “β2 Intrinsic activity” value is listed as 0.8. The IC50 in assay [2] is 0.501 nM.

In the case of `Cc1nc(C(=O)N2CCOC3(CCN(CCCOc4ccc(CNC[C@H](O)c5ccc(O)c6[nH]c(=O)sc56)cc4)CC3)C2)cs1` [Example 8, (R)-4-Hydroxy-7-(1-hydroxy-2-(4-(3-(4-(2-methylthiazole-4-carbonyl)-1-oxa-4,9-diazaspiro[5.5]undecan-9-yl)propoxy)benzylamino)ethyl)benzo[d]thiazol-2(3H)-one ditrifluoroacetate], in assay [1], the EC50 is 39.8 nM and the “β2 Intrinsic activity” value is 1.0. In assay [2], the IC50 was 3.98 nM.

With `Cc1ccc(C(=O)N2CCOC3(CCN(Cc4cccc(CCNC[C@H](O)c5ccc(O)c6[nH]c(=O)ccc56)c4)CC3)C2)s1` [Example 9, (R)-8-Hydroxy-5-(1-hydroxy-2-(3-((4-(5-methylthiophene-2-carbonyl)-1-oxa-4,9-diazaspiro[5.5]undecan-9-yl)methyl)phenethylamino)ethyl)quinolin-2(1H)-one ditrifluoracetate], in assay [1], the EC50 is 5.01 nM and the “β2 Intrinsic activity” value is 0.9. For the same compound, in assay [2], the IC50 was 2 nM.

Take `Cc1nc(C(=O)N2CCOC3(CCN(CCOc4cccc(CNC[C@H](O)c5ccc(O)c6[nH]c(=O)sc56)c4)CC3)C2)cs1` [Example 10, (R)-4-Hydroxy-7-(1-hydroxy-2-(3-(2-(4-(2-methylthiazole-4-carbonyl)-1-oxa-4,9-diazaspiro[5.5]undecan-9-yl)ethoxy)benzylamino)ethyl)benzo[d]thiazol-2(3H)-one ditrifluoroacetate]: in assay [1], the EC50 is 316 nM and the “β2 Intrinsic activity” value is given as 0.9. Also, the IC50 in assay [2] is 5.01 nM.

Turning to `CCc1ccc(C(=O)N2CCOC3(CCN(Cc4cccc(CCNC[C@H](O)c5ccc(O)c6[nH]c(=O)ccc56)c4)CC3)C2)s1` [Example 12, (R)-5-(2-(3-((4-(5-Ethylthiophene-2-carbonyl)-1-oxa-4,9-diazaspiro[5.5]undecan-9-yl)methyl)phenethylamino)-1-hydroxyethyl)-8-hydroxyquinolin-2(1H)-one ditrifluoroacetate], in assay [1], the EC50 is 10 nM and the “β2 Intrinsic activity” value came out at 1. Moreover, the IC50 in assay [2] was 1 nM.
